This is an account of results in US4721808A, “Process for purification of crude p-hydroxymethylbenzoic acid” (Amoco Corporation, priority 1987, dated 1988).

Each structure is given as a SMILES string.

The data set in a line: Solubilities of pHMBA and Impurities in Water. The data set is classed as physicochemical. As to the method: Since solubilities of p-hydroxymethylbenzoic acid and impurities in solvents depend upon the temperature at which the reaction takes place, increased product production is obtained by increased temperature and pressure.
Solubilities of pHMBA and Impurities in Water
Solubility (g/100 ml H2 O)

For `O=Cc1ccc(C(=O)O)cc1` [4-CBA, 4-carboxybenzaldehyde], the “Solubility at 20° C.” value is under 0.005 g/100 ml H2 O and the “Solubility at 100° C.” value is given as ~ 0.25 g/100 ml H2 O.
As for `O=C(O)c1ccc(CO)cc1` [pHMBA, p-hydroxymethylbenzoic acid], the “Solubility at 20° C.” value is listed as ~ 0.5 g/100 ml H2 O and the “Solubility at 100° C.” value is given as ~ 10.0 g/100 ml H2 O.
Taken in the same sequence, the figures for `Cc1ccc(C(=O)O)cc1` [p-Toluic Acid, p-toluic acid] were 0.02 g/100 ml H2 O and 0.22 g/100 ml H2 O.
As for `O=C(O)c1ccc(C(=O)O)cc1` [Terephthalic Acid, terephthalic acid], the “Solubility at 20° C.” value is listed as under 0.005 g/100 ml H2 O and the “Solubility at 100° C.” value amounted to 0.03 g/100 ml H2 O.
